In brackets after ≈: the same amount, converted by molar mass.
Legend:
[1] = plasmatic stability, human plasma; type: in vitro ADME; conditions: for Plasmatic stability: Human plasma
Protocol: (§1) Rat, human, mouse and dog plasma pooled from healthy donors extracted in citrate tubes was employed in the assay.
(§2) […] Then 300µl Acetonitrile were added for precipitating plasma protein, and the plate was centrifuged at 4000 g for 60 min at 4°C.
(§3) Supernatant was taken and analyzed by UPLC/MS/MS for sample quantification. Stationary phase: Reverse phase ACQUITY BEH C18 1.7µm 2.1x50mm (Waters) Mobile phase: 0.1% Formic acid water/0.1% formic acid in acetonitrile Gradient: Table 4: UPLC gradient / Plasmatic stability assay
(§4) The chromatographic equipment employed was an UPLC QSM Waters Acquity. Compound concentrations were calculated from the MS peak areas.

[2] = plasmatic stability, mouse plasma; type: in vitro ADME; parameters: unit not given beside the values
Protocol: as §1, §2, §3, §4

[3] = plasmatic stability, dog plasma; type: in vitro ADME
Protocol: as §1, §2, §3, §4

[4] = target: T1, CYP1A2 (Homo sapiens, UniProt P05177); assay: CYP inhibition, liver microsomes, substrate cocktail; type: in vitro ADME
T1 construct: 0.5 mg protein/mL of liver microsomes (HLM Xenotech); tissue Xenotech; host or cells: liver microsomes
T1 sequence (P05177 1-516): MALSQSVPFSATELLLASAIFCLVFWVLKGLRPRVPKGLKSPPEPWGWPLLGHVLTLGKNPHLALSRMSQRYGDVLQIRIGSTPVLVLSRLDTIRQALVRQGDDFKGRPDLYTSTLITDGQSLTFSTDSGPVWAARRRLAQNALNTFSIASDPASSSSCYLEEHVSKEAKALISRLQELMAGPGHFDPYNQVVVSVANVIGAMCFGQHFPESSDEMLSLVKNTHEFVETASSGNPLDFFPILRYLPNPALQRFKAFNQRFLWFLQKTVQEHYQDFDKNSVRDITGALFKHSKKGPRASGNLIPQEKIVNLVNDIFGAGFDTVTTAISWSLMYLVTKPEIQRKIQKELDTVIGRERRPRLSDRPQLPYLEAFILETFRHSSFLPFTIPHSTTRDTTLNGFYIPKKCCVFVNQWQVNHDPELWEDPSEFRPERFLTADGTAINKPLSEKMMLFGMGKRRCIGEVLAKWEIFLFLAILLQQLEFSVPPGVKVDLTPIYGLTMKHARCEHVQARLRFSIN
Protocol: (§5) Cytochrome P450 (CYP) are a family of enzymes which play a major role in the metabolism of drugs. Assessment of the potential of a compound to inhibit a specific cytochrome P450 enzyme is important as co-administration of compounds may result in one or both inhibiting the other's metabolism.
(§6) All the incubations were performed in 250 µL reaction medium containing sodium/potassium phosphate buffer 50mM, pH 7.4, 3mM MgCl2, an NADPH regeneration system 1mM NADP, 10mM glucose 6-phosphate, and 1 U/mL glucose 6-phosphate dehydrogenase, 0.5 mg protein/mL of liver microsomes (HLM Xenotech), and a substrate cocktail composed of phenacetin for CYP1A2, diclofenac for CYP2C9, S-mephenytoin for CYP2C19, bufuralol for CYP2D6, midazolam for CYP3A4, and testosterone for CYP3A4. Final concentrations of substrate in the reaction medium were: 10 µM phenacetin, 10 µM diclofenac, 5 µM bufuralol, 100µM S-Mephenytoin, 5 µM midazolam, and 50 µM testosterone. Following incubation at 37°C for 25 min, the reactions were terminated by the addition of ice-cold acetonitrile and the plate was centrifuged at 4000 g for 60 min at 4°C.
(§7) Supernatant was taken and analyzed by UPLC/MS/MS for sample quantification The chromatographic equipment employed was an UPLC QSM Waters Acquity. Stationary phase: Reverse phase Acquity UPLC® BEHC18 1,7 µm (2.1 mm x 100 mm) (Waters) Mobile phase: 0.1% Formic acid water/0.1% formic acid in acetonitrile. Flow: 0.8 ml/min. Gradient: Table 10: UPLC gradient / CYP inhibition assay

[5] = target: T2, CYP2C19 (Homo sapiens, UniProt P33261); assay: as above; type: in vitro ADME
T2 construct: 0.5 mg protein/mL of liver microsomes (HLM Xenotech); tissue Xenotech; host or cells: liver microsomes
T2 sequence (P33261 whole entry): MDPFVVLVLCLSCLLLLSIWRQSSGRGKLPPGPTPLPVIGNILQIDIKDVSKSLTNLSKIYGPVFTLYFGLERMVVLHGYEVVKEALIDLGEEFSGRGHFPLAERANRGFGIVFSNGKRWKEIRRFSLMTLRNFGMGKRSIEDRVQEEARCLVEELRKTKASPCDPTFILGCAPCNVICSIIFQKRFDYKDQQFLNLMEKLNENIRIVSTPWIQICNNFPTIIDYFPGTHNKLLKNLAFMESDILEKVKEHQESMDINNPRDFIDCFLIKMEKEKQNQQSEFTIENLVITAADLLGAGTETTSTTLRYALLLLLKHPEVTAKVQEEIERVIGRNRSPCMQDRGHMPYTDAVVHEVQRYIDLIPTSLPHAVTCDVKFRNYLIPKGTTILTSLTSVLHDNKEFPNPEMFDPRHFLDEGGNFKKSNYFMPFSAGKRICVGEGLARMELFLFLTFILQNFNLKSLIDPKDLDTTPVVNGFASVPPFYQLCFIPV
Protocol: as §5, §6, §7

[6] = target: T3, CYP2C9 (Homo sapiens, UniProt P11712); assay: as above; type: in vitro ADME
T3 construct: 0.5 mg protein/mL of liver microsomes (HLM Xenotech); tissue Xenotech; host or cells: liver microsomes
T3 sequence (P11712 whole entry): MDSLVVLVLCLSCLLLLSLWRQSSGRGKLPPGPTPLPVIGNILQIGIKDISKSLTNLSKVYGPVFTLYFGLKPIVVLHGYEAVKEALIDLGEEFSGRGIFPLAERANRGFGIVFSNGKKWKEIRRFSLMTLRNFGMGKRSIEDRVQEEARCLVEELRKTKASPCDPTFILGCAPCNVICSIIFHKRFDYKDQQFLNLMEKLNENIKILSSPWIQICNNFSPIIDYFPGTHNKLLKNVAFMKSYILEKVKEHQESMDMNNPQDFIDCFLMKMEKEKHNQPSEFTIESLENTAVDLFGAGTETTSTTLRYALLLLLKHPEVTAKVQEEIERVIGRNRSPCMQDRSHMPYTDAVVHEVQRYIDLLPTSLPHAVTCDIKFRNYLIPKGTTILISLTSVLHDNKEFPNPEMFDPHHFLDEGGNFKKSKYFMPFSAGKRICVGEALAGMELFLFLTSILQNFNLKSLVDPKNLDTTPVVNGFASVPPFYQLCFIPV
Protocol: as §5, §6, §7

[7] = target: T4, CYP2D6 (Homo sapiens, UniProt P10635); assay: as above; type: in vitro ADME
T4 construct: 0.5 mg protein/mL of liver microsomes (HLM Xenotech); tissue Xenotech; host or cells: liver microsomes
T4 sequence (P10635 whole entry): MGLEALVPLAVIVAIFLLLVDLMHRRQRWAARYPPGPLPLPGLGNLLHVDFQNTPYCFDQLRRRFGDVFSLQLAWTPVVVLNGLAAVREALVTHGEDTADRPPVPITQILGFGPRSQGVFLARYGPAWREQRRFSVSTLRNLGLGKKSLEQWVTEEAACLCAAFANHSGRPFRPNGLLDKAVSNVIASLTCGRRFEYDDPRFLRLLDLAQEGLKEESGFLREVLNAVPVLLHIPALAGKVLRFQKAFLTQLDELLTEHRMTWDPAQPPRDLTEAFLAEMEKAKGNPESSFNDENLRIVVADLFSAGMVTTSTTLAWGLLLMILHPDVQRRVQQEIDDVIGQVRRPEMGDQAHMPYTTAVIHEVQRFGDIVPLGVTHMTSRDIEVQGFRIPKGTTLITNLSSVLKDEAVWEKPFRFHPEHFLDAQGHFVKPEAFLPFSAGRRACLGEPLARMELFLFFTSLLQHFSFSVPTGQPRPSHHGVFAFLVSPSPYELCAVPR
Protocol: as §5, §6, §7

[8] = target: T5, CYP3A4 (Homo sapiens, UniProt P08684); assay: as above; type: in vitro ADME; conditions: for inhibition at 25 min, 10 µM: human, liver microsomes
T5 construct: 0.5 mg protein/mL of liver microsomes (HLM Xenotech); tissue Xenotech; host or cells: liver microsomes
T5 sequence (P08684 whole entry): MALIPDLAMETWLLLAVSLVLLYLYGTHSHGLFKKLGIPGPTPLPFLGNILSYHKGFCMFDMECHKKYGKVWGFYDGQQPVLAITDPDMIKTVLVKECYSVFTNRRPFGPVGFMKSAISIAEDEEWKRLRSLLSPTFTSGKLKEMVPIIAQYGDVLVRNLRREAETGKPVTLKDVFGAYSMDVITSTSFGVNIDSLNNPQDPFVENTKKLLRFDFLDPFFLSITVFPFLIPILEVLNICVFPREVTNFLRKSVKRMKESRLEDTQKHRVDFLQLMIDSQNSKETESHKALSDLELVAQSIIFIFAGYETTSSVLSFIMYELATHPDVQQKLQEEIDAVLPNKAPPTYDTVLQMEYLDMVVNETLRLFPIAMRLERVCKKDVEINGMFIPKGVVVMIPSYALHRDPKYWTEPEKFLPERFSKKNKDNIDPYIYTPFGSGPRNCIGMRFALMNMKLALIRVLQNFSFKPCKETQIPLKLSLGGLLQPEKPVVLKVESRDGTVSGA
Protocol: as §5, §6, §7

[9] = solubility by nephelometry; conditions: 1% dmso/pbs, 37 °C, aqueous buffer, kinetic from dmso stock
Protocol: Solubility was determined by nephelometry to assess its potential impact on the bioassays at active concentrations.
Then, said compounds were incubated for 2 hours at 37°C and read in a NEPHELOstar Plus (BMG LABTECH).

O=C(Cc1ccc2c(c1)OCCO2)Nc1nc(-c2ccc3c(c2)CCC(=O)N3)cs1 [Compound (If)]
Plasmatic stability ([1]; 10µM, t 0 min): 100.0 | Plasmatic stability ([1]; 10µM, t 60 min): 101.0 | Plasmatic stability ([1]; 10µM, t 120 min): 101.7 | Plasmatic stability ([1]; 10µM, t 360 min): 101.4 | Plasmatic stability ([1]; 100µM, t 0 min): 100.0 | Plasmatic stability ([1]; 100µM, t 60 min): 104.3 | Plasmatic stability ([1]; 100µM, t 120 min): 107.4 | Plasmatic stability ([1]; 100µM, t 360 min): 106.4 | plasmatic stability (in words) ([1]; human): high plasmatic stability | Plasmatic stability ([2]; 10µM, t 0 min): 100.0 | Plasmatic stability ([2]; 10µM, t 60 min): 67.8 | Plasmatic stability ([2]; 10µM, t 120 min): 41.6 | Plasmatic stability ([2]; 10µM, t 360 min): 5.6 | Plasmatic stability ([2]; 100µM, t 0 min): 100.0 | Plasmatic stability ([2]; 100µM, t 60 min): 77.6 | Plasmatic stability ([2]; 100µM, t 120 min): 57.5 | Plasmatic stability ([2]; 100µM, t 360 min): 9.6 | Plasmatic stability ([3]; 10µM, t 0 min): 100.0 | Plasmatic stability ([3]; 10µM, t 60 min): 89.2 | Plasmatic stability ([3]; 10µM, t 120 min): 85.1 | Plasmatic stability ([3]; 10µM, t 360 min): 83.5 | Plasmatic stability ([3]; 100µM, t 0 min): 100.0 | Plasmatic stability ([3]; 100µM, t 60 min): 101.4 | Plasmatic stability ([3]; 100µM, t 120 min): 106.5 | Plasmatic stability ([3]; 100µM, t 360 min): 102.4 | IC50 ([4]; CYP1A2, substrate phenacetin): > 10 µM | inhibition at 25 min, 10 µM ([4]; human, liver microsomes, pH 7.4, CYP1A2, 10µM, substrate phenacetin): -5.3% | IC50 ([5]; CYP2C19, substrate S-mephenytoin): > 10 µM | inhibition at 25 min, 10 µM ([5]; human, liver microsomes, pH 7.4, CYP2C19, 10µM, substrate S-mephenytoin): -18.8% | IC50 ([6]; CYP2C9, substrate diclofenac): > 10 µM | inhibition at 25 min, 10 µM ([6]; human, liver microsomes, pH 7.4, CYP2C9, 10µM, substrate diclofenac): -0.7% | IC50 ([7]; CYP2D6, substrate bufuralol): > 10 µM | inhibition at 25 min, 10 µM ([7]; human, liver microsomes, pH 7.4, CYP2D6, 10µM, substrate bufuralol): -2.9% | IC50 ([8]; CYP3A4 (Midazolam)): > 10 µM | IC50 ([8]; CYP3A4 (Testosterone), 25 min): > 10 µM | inhibition at 25 min, 10 µM ([8]; pH 7.4, CYP3A4 (Midazolam)): -9.4% | inhibition at 25 min, 10 µM ([8]; pH 7.4, CYP3A4 (Testosterone)): -12.8% | solubility at 2 h [9]: 61.5 µM (≈ 25.9 µg/mL)
